{"source": "patent US9101567B2", "about": "“Suppression of cancer growth and metastasis using nordihydroguaiaretic acid derivatives with 7-hydroxystaurosporine” (The Johns Hopkins University, priority 2010, dated 2015)", "assay_type_in_all_cases": "cell-based, human", "key": {"[1]": {"system": "caspase-7", "assay": "Western blotting of caspase-7 cleavage in MCF-7 cells", "details": "MCF-7, 17 hrs; M4N 80 μM, etoposide 20 μM, rapamycin 20 μM, UCN-01 5 μM", "method": "The sample volumes were adjusted by the total protein amount. Protein assay was performed by Bio-Rad Protein Assay (Bio-Rad Laboratories, Inc. Hercules, Calif.). The samples were resolved by the standard SDS-polyacrylamide gel electrophoresis and transferred to nitrocellulose membrane (Amersham Biosciences, Bjorkgatan, Sweden). The membranes were blocked with skim milk, and incubated with primary antibodies at 4° C. overnight and then with secondary antibody conjugated with horse radish peroxidase at room temperature for 2 hrs. The signals were detected by western blot chemiluminescence reagent plus (New England Nuclear Life Science Products, Boston, Mass.).\nThe effect of the combination treatments on cell death and autophagy was examined in two cell lines other than LNCaP cells."}, "[2]": {"system": "BNIP3 mRNA", "assay": "Northern blotting of BNIP3 mRNA in LNCaP cells", "details": "6 hr exposure to hypoxic condition, M4N 80 μM", "method": "RNA was extracted from the cells by a Trizol Reagent (Invitrogen, Carlsbad, Calif.). Twentyfive μg of RNA per lane was dissolved on the 1.5% agarose gel containing 20 mM NaPO4 (pH 6.8) and 6% formaldehyde. RNA was transferred to a Nytran SPC membrane (Sigma-Aldrich, St. Louis, Mo.). The probe for BNIP3 was derived from a 199 bp fragment DNA generated by RT-PCR using a SuperScript III First-Strand Synthesis System for RT-PCR (Invitrogen, Carlsbad, Calif.), 5′-primer ‘[…]’ and 3′-primer ‘[…]’. The PCR fragment was cloned into a topo vector (Invitrogen, Carlsbad, Calif.). After midi-prep, the DNA fragment was excised from the vector and dissolved on the 2% agarose gel and purified. The extracted DNA fragment was labeled by ^32P-αdATP, Klenow fragment, and random hexagonal primers. After unincorporated ^32P-αdATP was removed by a Sephadex G-50 spun column, the labeled DNA fragment was used as a probe. After hybridization, the membrane was washed and autoradiographed to a BioMax MR film (Kodak, Rochester, N.Y.).\nBNIP3 is a member of Bcl-2 family proteins which sends pro-apoptotic signal to mitochondria and induces mitochondrial membrane potential depolarization. […] This implies that BNIP3 is involved in autophagy as well as cell death. […]"}, "[3]": {"system": "mitochondrial membrane potential (ΔΨm)", "assay": "Measurement of mitochondrial membrane potential with JC-1 dye in LNCaP cells", "method": "The cells were cultured in 6 well microwell dishes and treated with the culture medium containing JC-1 dye (Cayman Chemical, Ann Arbor, Mich.) for 30 min, according to the company's protocol. After the cells had been washed carefully, they were treated with M4N for 5 hrs. The cells were observed through B29/Zeiss LSM 510 μMETA laser confocal microscope (Carl Zeiss, Germany). The cell images were captured by two different excitation lights (with 488 nm argon-ion and 568 nm argon-krypton lasers). Both JC-1 monomer and J-aggregates are detected by 488 nm excitation light while only J-aggregates are detected by 568 nm excitation light. The ratio of the intensity of the emission light excited by 568 nm light to that of the emission light excited by 488 nm light at every pixel of images (The ratio should indicate the mitochondrial potential) was calculated by the imaging software (Carl Zeiss, Germany). In the figure the ratio was shown by pseudo color. Red color indicates high ratio (high potential) while dark blue indicates low ratio (low potential). Yellow through green to light blue represents medium ratio (medium potential).\nSince BNIP3 functions to activate mitochondria-related cell death machinery and induce mitochondrial membrane depolarization, the effect of M4N on the mitochondrial membrane potential (ΔΨm) was examined (FIG. 3C). […]"}, "[4]": {"system": "BNIP3L", "assay": "Western blotting of BNIP3L in LNCaP cells", "details": "M4N 80 μM", "method": "The sample volumes were adjusted by the total protein amount. Protein assay was performed by Bio-Rad Protein Assay (Bio-Rad Laboratories, Inc. Hercules, Calif.). The samples were resolved by the standard SDS-polyacrylamide gel electrophoresis and transferred to nitrocellulose membrane (Amersham Biosciences, Bjorkgatan, Sweden). The membranes were blocked with skim milk, and incubated with primary antibodies at 4° C. overnight and then with secondary antibody conjugated with horse radish peroxidase at room temperature for 2 hrs. The signals were detected by western blot chemiluminescence reagent plus (New England Nuclear Life Science Products, Boston, Mass.). BNIP3 is a member of Bcl-2 family proteins which sends pro-apoptotic signal to mitochondria and induces mitochondrial membrane potential depolarization. […] This implies that BNIP3 is involved in autophagy as well as cell death. […] Since BNIP3 is known to be activated more under hypoxic conditions (24), BNIP3 expression was examined in both normoxic and hypoxic conditions (FIGS. 3A&B). […] Previously it was shown that BNIP3 expression is augmented by hypoxia through both […] (HIF)1α-dependent and nondependent pathways (24)."}}, "data": [{"smiles": "CN[C@@H]1C[C@H]2O[C@@](C)([C@@H]1OC)n1c3ccccc3c3c4c(c5c6ccccc6n2c5c31)C(=O)N[C@H]4O", "note": "[UCN-01, 7-hydroxystaurosporine]", "values": [{"measurement": "caspase-7 cleavage", "setting": "[1]", "result": "detected"}]}, {"smiles": "COc1ccc(C[C@@H](C)[C@@H](C)Cc2ccc(OC)c(OC)c2)cc1OC", "note": "[M4N, Tetra-O-methyl nordihyroguaiaretic acid]", "values": [{"measurement": "BNIP3 mRNA expression", "setting": "[2]", "result": "suppressed the increase of BNIP3 mRNA expression"}, {"measurement": "mitochondrial membrane potential (ΔΨm)", "setting": "[3]; 5 hrs, M4N 80 μM, JC-1 dye", "result": "hyperpolarized"}, {"measurement": "depolarization of mitochondrial membrane potential induced by rottlerin or Ly294002", "setting": "[3]; concomitant treatment with M4N", "result": "reversed to the normal potential to some extent"}, {"measurement": "BNIP3L expression", "setting": "[4]", "result": "only slightly reduced"}]}]}
